{"source": "patent US9770482B2", "about": "“Targeting the EGFR-SGLT1 interaction for cancer therapy” (The University of Houston System, priority 2013, dated 2017)", "key": {"EGFR-SGLT1 interaction": {"molecular_target": "T1, EGFR-SGLT1 interaction (Homo sapiens, UniProt P00533)", "T1 construct": "The full-length human EGFR was amplified with a forward primer EGFR-F; expressed in transfected cells; host or cells: HEK293", "test": "Immunoprecipitation coupled Western blot of EGFR-HA and SGLT1-Flag interaction in co-transfected HEK293 cells", "type": "cell-based", "conditions": "WT-EGFR and SGLT1 co-transfected HEK293 cells; EGF 10 ng/ml or EGF plus AEE788 5 μM, 30-60 min; FIG. 3A"}, "[1]": {"molecular_target": "T2, endogenous EGFR-SGLT1 interaction (Homo sapiens, UniProt P00533)", "T2 construct": "endogenous in cells; host or cells: PC3", "test": "Immunoprecipitation coupled Western blot of endogenous EGFR and SGLT1 interaction in PC3 cells", "type": "cell-based", "conditions": "PC3 cells treated with EGF or AEE788; FIG. 3B"}, "SGLT1 [2]": {"test_system": "SGLT1", "test": "Western blot of SGLT1 level in PC3 cells", "type": "cell-based", "conditions": "FIG. 5B", "text": "(§1) In another embodiment, a peptide can destabilize EGFR and SGLT1 proteins of cancer cells. FIG. 5A, by way of example only, illustrates an embodiment of a peptide, called ESD-01 (SEQ ID NO: 001), which can destabilize EGFR and SGLT1 proteins of cancer cells. In one embodiment, the ESD-01 peptide can be selected from the SGLT1 interacting domain of EGFR. In another embodiment, ESD-01 comprises amino acids 1049-1062 of a human EGFR protein (GenBank: AAH94761.1). In still another embodiment, the effects of ESD-01 on the stability of EGFR and SGLT1 in cultured cells (e.g, PC3, MDA-MB-231, and HCT116 cells) can be determined by Western blot analysis. […] In still another embodiment, the effects of ESD-01 on the survivability of cultured cancer cells (e.g, PC3, MDA-MB-231, and HCT116 cells) can be determined by trypan blue uptake assay.\n(§2) For Western blot (WB) analysis, cells were lysed with RIPA buffer (150 mM NaCl, 50 mM Tris-HCl, pH 7.4, 0.1% SDS, 1% TritonX-100, 1 mM EDTA, 1 mM PMSF, 20 μg/ml aprotinin, 20 μg/ml leupeptin, 20 μg/ml pepstatine, 1% sodium deoxycholate, 1 mM NaF, 1 mM Na3VO4, in H2O). Proteins separated by 8% SDS-PAGE were transferred to PVDF membrane followed by blocking with 5% nonfat dry milk and then incubation with primary antibodies at optimized concentrations for overnight at 4° C. […]"}, "EGFR": {"test_system": "EGFR", "test": "Western blot of EGFR level in PC3 cells", "type": "cell-based", "conditions": "FIG. 5B", "text": "as §1, §2"}, "SGLT1 [3]": {"test_system": "SGLT1", "test": "Western blot of SGLT1 level in SGLT1 and ΔAutoPhos-EGFR co-transfected HEK293 cells", "type": "cell-based, human", "conditions": "FIGS. 2C-2D", "text": "In an embodiment, to determine whether proteasome is involved in loss of interaction with EGFR induced down-regulation of SGLT1, SGLT1 and ΔAutoPhos-EGFR co-transfected HEK293 cells can be treated with a proteasome inhibitor, such as but not limited to […]. For example, FIG. 2C illustrates a Western blot analysis of the effect of a proteasome inhibitor MG132 on the down-regulation of SGLT1 by ΔAutophos-EGFR. Actin may be used as a loading control. FIG. 2D, by way of example only, illustrates a densitometric quantification of bands in the Western blot of FIG. 2C. Asterisk marks indicate statistical significance between the linked representative groups from triplicate experiments.\nHEK293 cells were transfected with plasmids expressing flagged SGLT1 alone or with indicated HA tagged EGFR constructs. After 24 hours of transfection, cells were washed in 1× phosphate buffered solution and lysed with RIPA buffer (50 mM Tris-HCl, pH 8.0, with 150 mM sodium chloride, 1.0% Igepal CA-630 (NP-40), 0.5% sodium deoxycholate, and 0.1% sodium dodecyl sulfate), supplemented with a protease inhibitors cocktail for 6 hours on a shaker at 4° C. The cell lysates were then centrifuged for 2 minutes at 12000× rpm. Supernatant were then incubated with sepharose protein A/G beads conjugated with anti-flag or anti-SGLT1 antibody for overnight at 4° C. […]"}, "LNCaP cells": {"test_system": "LNCaP cells", "test": "MTT cell growth assay, LNCaP cells", "type": "cell-based", "conditions": "phlorizin 50 μM with/without Gefitinib 10 μM or Erlotinib 10 μM, 48 hs, FIG. 4D", "description": "(§3) It is well known that an increase in glucose levels can activate EGFR, that SGLT1 is over-expressed in prostate cancer tissues, and that prostate cancer is resistant to EGFR inhibitors. […] In an embodiment, SGLT1 and EGFR can synergistically promote prostate cancer growth. […] In one embodiment, the growth inhibitory effects of the treatments may be determined. […]\n(§4) Cell growth was determined by 3-(4,5-dimethylthiazole-2-yl)-2,5-diphenyltetrazolium Bromide (MTT) assay in 96-well plates according to the protocol provided by the manufacture. […] Absorbance was measured by a MultiSkan plate reader (Thermo Fisher Scientific, NC) at 570 nm. […] Cell viability was determined by trypan blue uptake assay. The percentage of live cells were counted in areas (n=3 for each sample) randomly selected under 10× magnificence of triplicates. […]"}, "PC3 cells": {"test_system": "PC3 cells", "test": "MTT cell growth assay, PC3 cells", "type": "cell-based", "conditions": "phlorizin 50 μM with/without Gefitinib 10 μM or Erlotinib 10 μM, 48 hs, FIG. 4C", "description": "as §3, §4"}, "[4]": {"test_system": "prostate cancer Du145 cells", "test": "Trypan blue uptake assay, Du145 cells", "type": "cell-based", "conditions": "100 μM for 24 hours, FIG. 6", "text": "as §1\n(§5) Cell growth was determined by 3-(4,5-dimethylthiazole-2-yl)-2,5-diphenyltetrazolium Bromide (MTT) assay in 96-well plates according to the protocol provided by the manufacture. Briefly, 5000 cells suspended in 100 μL medium were seeded in each well of a 96-well plate. […] Absorbance was measured by a MultiSkan plate reader (Thermo Fisher Scientific, NC) at 570 nm. […] Cell viability was determined by trypan blue uptake assay. The percentage of live cells were counted in areas (n=3 for each sample) randomly selected under 10× magnificence of triplicates."}, "[5]": {"test_system": "prostate cancer PC3 cells", "test": "Trypan blue uptake assay, PC3 cells", "type": "cell-based", "conditions": "100 μM for 24 hours, FIG. 6", "text": "as §1, §5"}, "[6]": {"test_system": "non-cancerous HEK293 cells", "test": "Trypan blue uptake assay, HEK293 cells", "type": "cell-based", "conditions": "FIG. 6", "text": "as §1, §5"}, "cancer cells": {"test_system": "cancer cells", "test": "Killing of cancer cells in vitro, L- versus D-amino acid peptide", "type": "cell-based"}, "[7]": {"test_system": "breast cancer MDA-MB-231 cells", "test": "Trypan blue uptake assay, MDA-MB-231 cells", "type": "cell-based", "conditions": "100 μM for 24 hours, FIG. 6", "text": "as §1, §5"}, "[8]": {"test_system": "colon cancer HCT116 cells", "test": "Trypan blue uptake assay, HCT116 cells", "type": "cell-based", "conditions": "100 μM for 24 hours, FIG. 6", "text": "as §1, §5"}, "[9]": {"molecular_target": "T3, wild type EGFR, HA tagged (human, full length, C-terminal HA tag) (human, UniProt P00533 25-1210)", "T3 construct": "whole, on cells; Expressed by transient transfection in HEK293 cells; tested in RIPA lysates by co-immunoprecipitation; also called WT; WT-EGFR; not shown: C-terminal HA tag", "test": "co-IP of SGLT1-Flag, Western blot for EGFR-HA, HEK293 cells treated with EGF or EGF plus AEE788"}, "[10]": {"molecular_target": "T4, endogenous EGFR of PC3 cells (UniProt P00533 25-1210, limits assumed)", "T4 construct": "whole, on cells; Co-precipitated from PC3 lysates with endogenous SGLT1", "test": "co-IP of endogenous SGLT1 (anti-SGLT1), Western blot for EGFR and pEGFR, PC3 cells treated with EGF or AEE788"}}, "note": "Entries after “also recorded” stand apart in the source; their conditions may differ. Peptide text beside a SMILES is read from it. * marks the point of attachment. Cbz = O=C(OCc1ccccc1)*", "data": [{"molecule": "CCN1CCN(Cc2ccc(-c3cc4c(N[C@H](C)c5ccccc5)ncnc4[nH]3)cc2)CC1", "note": "[AEE788]", "values": [{"measurement": "effect on EGFR-SGLT1 interaction (EGFR co-immunoprecipitated with SGLT1)", "setting": "EGFR-SGLT1 interaction", "value": "neither EGF nor AEE788 significantly affects the EGFR-SGLT1 interaction"}, {"measurement": "effect on endogenous EGFR-SGLT1 interaction", "setting": "[1]", "value": "neither EGF nor AEE788 affect the EGFR-SGLT1 interaction"}]}, {"molecule": "CC(C)C[C@@H](C=O)NC(=O)[C@H](CC(C)C)NC(=O)[C@H](CC(C)C)NC(=O)OCc1ccccc1", "note": "[MG132] (Cbz-Leu-Leu-Leu-aldehyde)", "values": [{"measurement": "inhibition of ESD-01 induced SGLT1 down-regulation", "setting": "SGLT1 [2]; ESD-01 200 μM for 6 hours", "value": "inhibited"}, {"measurement": "inhibition of ESD-01 induced EGFR down-regulation", "setting": "EGFR; ESD-01 200 μM for 6 hours", "value": "inhibited"}, {"measurement": "inhibition of down-regulation of SGLT1", "setting": "SGLT1 [3]", "value": "can inhibit the down-regulation of SGLT1"}]}, {"molecule": "O=C(CCc1ccc(O)cc1)c1c(O)cc(O)cc1O[C@@H]1O[C@H](CO)[C@@H](O)[C@H](O)[C@H]1O", "note": "[Phlorizin]", "values": [{"measurement": "sensitization to growth inhibitory effects of Gefitinib and Erlotinib", "setting": "LNCaP cells", "value": "sensitizes; also recorded: significantly sensitize"}, {"measurement": "sensitization to growth inhibitory effects of Gefitinib and Erlotinib", "setting": "PC3 cells", "value": "sensitizes; also recorded: significantly sensitize"}]}, {"molecule": "ESD-01: synthesized peptide from the SGLT1 interacting domain of EGFR; comprises amino acids 1049-1062 of a human EGFR protein (GenBank: AAH94761.1) (LVWKQSCSSTSSTH; listed as Homo sapiens)", "values": [{"measurement": "SGLT1 level", "setting": "SGLT1 [2]; 200 μM for 6 hours", "value": "significantly down-regulates"}, {"measurement": "survivability", "setting": "[4]", "value": "significantly reduces the survivability"}, {"measurement": "EGFR level", "setting": "EGFR; 200 μM for 6 hours", "value": "significantly down-regulates"}, {"measurement": "survivability", "setting": "[5]", "value": "significantly reduces the survivability"}, {"measurement": "survivability", "setting": "[6]", "value": "cannot reduce the survivability"}, {"measurement": "killing cancer cells in vitro, peptide made of L-amino acids versus D-amino acids", "setting": "cancer cells", "value": "equally effective"}, {"measurement": "survivability", "setting": "[7]", "value": "significantly reduces the survivability"}, {"measurement": "survivability", "setting": "[8]", "value": "significantly reduces the survivability"}]}, {"molecule": "flag tagged human SGLT1 (sodium/glucose co-transporter 1) (other, UniProt P13866 1-664, looked up, whole, on cells; Plasmid described in Blessing et al. 2012; Expressed in HEK293 cells and immunoprecipitated with anti-flag antibody; also called SGLT1-Flag; flagged SGLT1; not shown: Flag tag) MDSSTWSPKTTAVTRPVETHELIRNAADISIIVIYFVVVMAVGLWAMFSTNRGTVGGFFLAGRSMVWWPIGASLFASNIGSGHFVGLAGTGAASGIAIGGFEWNALVLVVVLGWLFVPIYIKAGVVTMPEYLRKRFGGQRIQVYLSLLSLLLYIFTKISADIFSGAIFINLALGLNLYLAIFLLLAITALYTITGGLAAVIYTDTLQTVIMLVGSLILTGFAFHEVGGYDAFMEKYMKAIPTIVSDGNTTFQEKCYTPRADSFHIFRDPLTGDLPWPGFIFGMSILTLWYWCTDQVIVQRCLSAKNMSHVKGGCILCGYLKLMPMFIMVMPGMISRILYTEKIACVVPSECEKYCGTKVGCTNIAYPTLVVELMPNGLRGLMLSVMLASLMSSLTSIFNSASTLFTMDIYAKVRKRASEKELMIAGRLFILVLIGISIAWVPIVQSAQSGQLFDYIQSITSYLGPPIAAVFLLAIFWKRVNEPGAFWGLILGLLIGISRMITEFAYGTGSCMEPSNCPTIICGVHYLYFAIILFAISFITIVVISLLTKPIPDVHLYRLCWSLRNSKEERIDLDAEEENIQEGPKETIEIETQVPEKKKGIFRRAYDLFCGLEQHGAPKMTEEEEKAMKMKMTDTSEKPLWRTVLNVNGIILVTVAVFCHAYFA", "values": [{"measurement": "binding result", "setting": "[9]", "value": "binds"}]}, {"molecule": "endogenous SGLT1 of PC3 cells (other, UniProt P13866 1-664, looked up, whole, on cells; Immunoprecipitated from PC3 lysates with anti-SGLT1 antibody) MDSSTWSPKTTAVTRPVETHELIRNAADISIIVIYFVVVMAVGLWAMFSTNRGTVGGFFLAGRSMVWWPIGASLFASNIGSGHFVGLAGTGAASGIAIGGFEWNALVLVVVLGWLFVPIYIKAGVVTMPEYLRKRFGGQRIQVYLSLLSLLLYIFTKISADIFSGAIFINLALGLNLYLAIFLLLAITALYTITGGLAAVIYTDTLQTVIMLVGSLILTGFAFHEVGGYDAFMEKYMKAIPTIVSDGNTTFQEKCYTPRADSFHIFRDPLTGDLPWPGFIFGMSILTLWYWCTDQVIVQRCLSAKNMSHVKGGCILCGYLKLMPMFIMVMPGMISRILYTEKIACVVPSECEKYCGTKVGCTNIAYPTLVVELMPNGLRGLMLSVMLASLMSSLTSIFNSASTLFTMDIYAKVRKRASEKELMIAGRLFILVLIGISIAWVPIVQSAQSGQLFDYIQSITSYLGPPIAAVFLLAIFWKRVNEPGAFWGLILGLLIGISRMITEFAYGTGSCMEPSNCPTIICGVHYLYFAIILFAISFITIVVISLLTKPIPDVHLYRLCWSLRNSKEERIDLDAEEENIQEGPKETIEIETQVPEKKKGIFRRAYDLFCGLEQHGAPKMTEEEEKAMKMKMTDTSEKPLWRTVLNVNGIILVTVAVFCHAYFA", "values": [{"measurement": "binding result", "setting": "[10]", "value": "binds"}]}]}
